From ChEMBL document CHEMBL5223073, “Andrographolide suppresses cisplatin-induced endothelial hyperpermeability through activation of PI3K/Akt and eNOS -derived nitric oxide” (Bioorg Med Chem, 2020)
The source made the active and inactive calls. No cut-off for these calls is given here.

Tests used:
[1] = target: T1, Nitric oxide synthase 3 (Homo sapiens) (UniProt P29474); test: Activation of eNOS activity in cisplatin-treated HUVEC cells assessed as increase in eNOS phosphorylation at Ser1177 residue at 30 uM preincubated with PI3K inhibitor, wortmannin followed by compound addition measured after 5 to 240 mins by Western blot analysis; assay type: cell-based; conditions: time 5-240 min
T1 sequence (whole entry): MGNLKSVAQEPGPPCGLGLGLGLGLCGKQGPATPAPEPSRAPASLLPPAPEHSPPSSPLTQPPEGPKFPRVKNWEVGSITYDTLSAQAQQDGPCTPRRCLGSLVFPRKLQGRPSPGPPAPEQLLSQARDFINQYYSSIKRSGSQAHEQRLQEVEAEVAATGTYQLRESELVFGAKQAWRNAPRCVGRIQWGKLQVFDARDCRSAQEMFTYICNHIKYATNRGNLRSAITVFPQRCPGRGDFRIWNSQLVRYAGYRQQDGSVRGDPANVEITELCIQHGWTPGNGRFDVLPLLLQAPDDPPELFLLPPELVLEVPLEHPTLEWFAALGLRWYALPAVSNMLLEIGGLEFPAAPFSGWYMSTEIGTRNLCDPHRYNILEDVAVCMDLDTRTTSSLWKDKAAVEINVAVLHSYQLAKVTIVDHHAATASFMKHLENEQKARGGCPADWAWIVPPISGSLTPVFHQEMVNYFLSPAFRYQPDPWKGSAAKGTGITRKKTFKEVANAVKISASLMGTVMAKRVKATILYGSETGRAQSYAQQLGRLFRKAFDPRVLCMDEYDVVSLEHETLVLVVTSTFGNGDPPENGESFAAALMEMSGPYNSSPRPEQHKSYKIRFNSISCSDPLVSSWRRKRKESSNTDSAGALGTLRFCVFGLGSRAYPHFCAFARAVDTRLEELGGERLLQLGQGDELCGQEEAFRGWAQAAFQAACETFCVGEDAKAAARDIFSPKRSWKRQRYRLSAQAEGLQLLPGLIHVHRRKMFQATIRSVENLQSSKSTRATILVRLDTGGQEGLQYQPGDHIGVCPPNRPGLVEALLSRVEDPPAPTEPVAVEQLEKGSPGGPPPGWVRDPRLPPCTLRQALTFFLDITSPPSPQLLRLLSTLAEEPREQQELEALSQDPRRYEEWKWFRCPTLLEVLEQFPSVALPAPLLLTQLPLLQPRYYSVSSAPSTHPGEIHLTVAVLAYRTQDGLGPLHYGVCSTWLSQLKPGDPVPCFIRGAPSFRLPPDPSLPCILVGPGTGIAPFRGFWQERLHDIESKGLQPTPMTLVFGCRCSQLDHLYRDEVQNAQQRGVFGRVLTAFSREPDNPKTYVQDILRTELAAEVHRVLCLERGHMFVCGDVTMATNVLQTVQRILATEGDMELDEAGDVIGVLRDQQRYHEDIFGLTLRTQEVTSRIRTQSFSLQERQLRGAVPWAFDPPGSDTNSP

[2] = target: Transcription factor p65 (Homo sapiens) (UniProt Q04206); test: Inhibition of cisplatin-induced phosphorylation of p65 subunit at Ser536 residue in HUVEC cells at 30 uM incubated for 1 hr by Western blot analysis; assay type: cell-based
Transcription factor p65 (Homo sapiens), sequence (Q04206 whole entry): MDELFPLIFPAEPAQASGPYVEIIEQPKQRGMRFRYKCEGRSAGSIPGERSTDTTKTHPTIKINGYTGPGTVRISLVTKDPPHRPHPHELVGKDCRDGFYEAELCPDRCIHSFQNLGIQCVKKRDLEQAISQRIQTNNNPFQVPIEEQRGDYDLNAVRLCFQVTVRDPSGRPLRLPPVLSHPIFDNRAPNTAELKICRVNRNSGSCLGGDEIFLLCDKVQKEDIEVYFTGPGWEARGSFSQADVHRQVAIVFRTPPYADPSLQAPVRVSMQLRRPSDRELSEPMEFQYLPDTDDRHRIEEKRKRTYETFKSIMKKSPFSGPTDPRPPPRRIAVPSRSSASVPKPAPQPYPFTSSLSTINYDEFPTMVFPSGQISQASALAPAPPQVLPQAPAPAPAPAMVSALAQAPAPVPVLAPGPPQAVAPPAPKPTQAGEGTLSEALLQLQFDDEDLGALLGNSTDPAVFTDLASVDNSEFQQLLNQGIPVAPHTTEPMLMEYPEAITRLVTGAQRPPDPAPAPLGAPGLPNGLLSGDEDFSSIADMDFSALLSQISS

[3] = target: T2, NF-kappa-B inhibitor alpha (Homo sapiens) (UniProt P25963); test: Inhibition of cisplatin-induced phosphorylation of IkappaBalpha at Ser32/36 residue in HUVEC cells at 30 uM preincubated with PI3K inhibitor, wortmannin followed by compound addition and further incubated for 1 hr by Western blot analysis; assay type: cell-based
T2 sequence (whole entry): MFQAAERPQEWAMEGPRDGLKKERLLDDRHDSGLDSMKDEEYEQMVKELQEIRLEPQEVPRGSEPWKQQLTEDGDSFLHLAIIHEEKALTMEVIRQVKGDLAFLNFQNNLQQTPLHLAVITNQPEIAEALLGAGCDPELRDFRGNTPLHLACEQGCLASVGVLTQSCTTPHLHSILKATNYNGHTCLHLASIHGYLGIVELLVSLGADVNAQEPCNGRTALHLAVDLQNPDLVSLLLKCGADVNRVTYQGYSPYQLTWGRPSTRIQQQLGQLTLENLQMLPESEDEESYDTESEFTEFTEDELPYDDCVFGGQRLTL

[4] = tested on: HUVEC; test: Inhibition of cisplatin-induced store operated Ca2+ release in HUVEC cells at 30 uM preincubated with compound followed by cisplatin stimulation by Fura-2 AM staining based calcium influx assay; assay type: functional, cell-based; conditions: Homo sapiens
[5] = tested on: HUVEC; test: Upregulation of cytosolic p65 level in cisplatin-treated HUVEC cells at 30 uM preincubated with PI3K inhibitor, wortmannin followed by compound addition and further incubated for 1 hr by Western blot analysis; assay type: functional, cell-based; conditions: Homo sapiens
[6] = tested on: HUVEC; test: Upregulation of cytosolic p65 level in cisplatin-treated HUVEC cells at 30 uM preincubated with eNOS inhibitor, N(G)-nitro-L-arginine methyl ester followed by compound addition and further incubated for 1 hr by Western blot analysis; assay type: functional, cell-based; conditions: Homo sapiens
[7] = target: T1, Nitric oxide synthase 3 (Homo sapiens); test: Activation of eNOS activity in cisplatin-treated HUVEC cells assessed as increase in intracellular cGMP level incubated for 15 mins by radioimmunoassay; assay type: cell-based; conditions: filed as activator, dose 10-30 µM
[8] = target: T2, NF-kappa-B inhibitor alpha (Homo sapiens); test: Inhibition of cisplatin-induced phosphorylation of IkappaBalpha at Ser32/36 residue in HUVEC cells at 30 uM incubated for 1 hr by Western blot analysis; assay type: cell-based
[9] = target: T2, NF-kappa-B inhibitor alpha (Homo sapiens); test: Inhibition of cisplatin-induced phosphorylation of IkappaBalpha at Ser32/36 residue in HUVEC cells at 30 uM preincubated with eNOS inhibitor, N(G)-nitro-L-arginine methyl ester followed by compound addition and further incubated for 1 hr by Western blot analysis; assay type: cell-based
[10] = tested on: HUVEC; test: Activation of AKT in cisplatin-treated HUVEC cells assessed as increase in AKT phosphorylation at 30 uM measured after 5 to 240 mins by Western blot analysis; assay type: cell-based; conditions: Homo sapiens, filed as activator, time 5-240 min
[11] = tested on: U-937; test: Cytotoxicity against human U-937 cells assessed as reduction in cell viability at <=30 uM measured after 24 hrs by MTT assay; assay type: toxicity, cell-based; conditions: u-937, 24 h
[12] = tested on: HUVEC; test: Inhibition of cisplatin-induced store operated Ca2+ release in HUVEC cells at 30 uM preincubated with compound in presence of PI3K inhibitor, wortmannin followed by cisplatin stimulation by Fura-2 AM staining based calcium influx assay; assay type: functional, cell-based; conditions: Homo sapiens

Activity [1]: inactive
inhibition [2]: Active
inhibition [3]: inactive
Activity [7]: Dose-Dependent Effect
inhibition [8]: Active
inhibition [9]: inactive
SMILES: C=C1CC[C@@H]2[C@](C)(CO)[C@H](O)CC[C@@]2(C)[C@@H]1C/C=C1/C(=O)OC[C@H]1O [ANDROGRAPHOLIDE]
inhibition [4]: Active
Activity [5]: inactive
Activity [6]: inactive
Activity [10]: Active
Activity [11]: Non-Toxic
inhibition [12]: inactive
